Molecules are shown by their SMILES.

21 molecules from ChEMBL document CHEMBL5608172, “Structural modification strategies of triazoles in anticancer drug development” (Eur J Med Chem, 2024) can be followed below.

Data set [1] relates to Detroit 562. The data set can be described thus: Antiproliferative activity against human Detroit 562 cells. It is filed as functional, cell-based.
The subject of data set [2] is HCT-116. The data set can be described thus: Cytotoxicity against human HCT-116 cells assessed as reduction in cell growth incubated for 24 hrs by MTT assay. Type of data set: functional, cell-based. The conditions noted are these: HCT-116, 24 h.
The subject of data set [3] is U-937. The data set can be described thus: Antiproliferative activity against human U-937 cells. Type of data set: functional, cell-based.
The subject of data set [4] is HL-60. The data set can be described thus: Antiproliferative activity against human HL-60 cells. It is filed as functional, cell-based.
Data set [5] concerns PC-3. The data set can be described thus: Cytotoxicity against human PC-3 cells assessed as reduction in cell growth incubated for 3 days by MTT assay. It is filed as functional, cell-based. The conditions noted are these: PC-3, 72 h.
For data set [6], the system named is HCT-116. Kind of data set: Cytotoxicity against human HCT-116 cells assessed as reduction in cell viability measured after 48 hrs by MTT assay. It is filed as functional, cell-based. The conditions noted are these: HCT-116, 48 h.
Data set [7] concerns A549. Kind of data set: Anticancer activity against human A549 cells assessed as reduction in cell viability by MTT assay. It is filed as functional, cell-based.
For data set [8], the system named is HeLa. The data set can be described thus: Anticancer activity against human HeLa cells assessed as reduction in cell viability by MTT assay. Type of data set: functional, cell-based.
Data set [9] concerns T47D. The data set can be described thus: Cytotoxicity against human T47D cells assessed as reduction in cell growth incubated for 24 hrs by MTT assay. It is filed as functional, cell-based.
Data set [10] relates to MCF7. Kind of data set: Cytotoxicity against human MCF7 cells assessed as reduction in cell growth incubated for 24 hrs by MTT assay. It is filed as functional, cell-based. As to conditions: MCF7, 24 h.
Data set [11] has as its system SNB-19. Kind of data set: Cytotoxicity against human SNB-19 cells assessed as reduction in cell growth incubated for 24 hrs by MTT assay. Type of data set: functional, cell-based. As to conditions: SNB-19, 24 h.
Data set [12] concerns AGS. Kind of data set: Anticancer activity against human AGS cells. Type of data set: functional, cell-based.
Data set [13] concerns MCF7. The data set can be described thus: Cytotoxicity against human MCF7 cells assessed as cell growth inhibition incubated for 72 hrs by SRB assay. The conditions noted are these: MCF7, 72 h. It is filed as functional, cell-based.
In data set [14] the test system is CCRF-CEM. Kind of data set: Antiproliferative activity against human CCRF-CEM cells. It is filed as functional, cell-based.
Data set [15] relates to SW-620. Kind of data set: Antiproliferative activity against human SW620 cells assessed as inhibition of cell growth measured after 72 hrs by MTT assay. It is filed as functional, cell-based. The conditions noted are these: SW-620, 72 h.
Data set [16] in a line: Cytotoxicity against hTERT Lung Fibroblast cells assessed as reduction in cell growth incubated for 72 hrs by MTT assay. The conditions noted are these: human. Type of data set: toxicity, cell-based.
Data set [17] deals with MCF7. Kind of data set: Cytotoxicity against human MCF7 cells assessed as reduction in cell growth incubated for 72 hrs by MTT assay. The conditions noted are these: MCF7, 72 h. It is filed as functional, cell-based.
The test system of data set [18] is HCT-116. The data set can be described thus: Cytotoxicity against human HCT-116 cells assessed as reduction in cell viability incubated for 24 hrs by MTT assay. It is filed as functional, cell-based. As to conditions: HCT-116, 24 h.
In data set [19] the test system is MCF7. The data set can be described thus: Antiproliferative activity against human MCF7 cells assessed as reduction in cell viability. It is filed as functional, cell-based.
The test system of data set [20] is MDA-MB-231. The data set can be described thus: Antiproliferative activity against human MDA-MB-231 cells assessed as reduction in cell viability. Type of data set: functional, cell-based.
Data set [21] has as its system HCT-116. The data set can be described thus: Antiproliferative activity against human HCT-116 cells assessed as inhibition of cell growth measured after 72 hrs by MTT assay. It is filed as functional, cell-based. The conditions noted are these: HCT-116, 72 h.
The subject of data set [22] is HepG2. Kind of data set: Anticancer activity against human HepG2 cells. It is filed as functional, cell-based.
In data set [23] the test system is K562. The data set can be described thus: Antiproliferative activity against human K562 cells assessed as reduction in cell viability incubated for 72 hrs by MTT assay. The conditions noted are these: K562, 72 h. It is filed as functional, cell-based.
In data set [24] the test system is PC-3. The data set can be described thus: Antiproliferative activity against human PC-3 cells assessed as reduction in cell viability incubated for 72 hrs by MTT assay. Type of data set: functional, cell-based. The conditions noted are these: PC-3, 72 h.
The subject of data set [25] is MCF7. The data set can be described thus: Antiproliferative activity against human MCF7 cells assessed as reduction in cell growth incubated for 24 hrs by MTT assay. The conditions noted are these: MCF7, 24 h. Type of data set: functional, cell-based.
For data set [26], the system named is Huh-7. Kind of data set: Cytotoxicity against human Huh-7 cells assessed as cell growth inhibition incubated for 72 hrs by SRB assay. It is filed as functional, cell-based. The conditions noted are these: Huh-7, 72 h.
Data set [27] has as its system HeLa. Kind of data set: Cytotoxicity against human HeLa cells by MTT assay. It is filed as functional, cell-based.

As for `COc1cc(C(=O)/C=C/c2ccccc2)cc(OC)c1OC`, the concentration for half-maximal inhibition (IC50) in data set [1] worked out at 3070 nM.
Take `C=C(C)[C@@H]1CC[C@]2(COC(C)=O)CC[C@]3(C)[C@H](CC[C@@H]4[C@@]5(C)Cc6nn(C(C)=O)nc6C(C)(C)[C@@H]5CC[C@]43C)[C@@H]12`: the IC50 in [2] was found to be 22500 nM.
Still for that read-out and setting: then `C=C(C)[C@@H]1CC[C@]2(CO)CC[C@]3(C)[C@H](CC[C@@H]4[C@@]5(C)Cc6nn(C(C)=O)nc6C(C)(C)[C@@H]5CC[C@]43C)[C@@H]12`, with 5670 nM.
As for `CNc1nc2ccccc2n2c(CCc3ccccc3)cnc12`, the IC50 in data set [3] stood at 820 nM; in [4], 2070 nM.
For `Cc1nn(-c2ccc(S(N)(=O)=O)cc2)c(N)c1-c1nnc(SC/C(=N\O)c2ccccc2)n1-c1ccccc1`, in [5], the IC50 worked out at 330 nM.
In the case of `CC(=O)O[C@@H]1O[C@H](Cn2cc(COc3cccc4cccnc34)nn2)[C@H](OC(C)=O)[C@H](OC(C)=O)[C@H]1OC(C)=O`, the concentration for half-maximal inhibition (IC50) in data set [6] was 10800 nM.
On to `O=Cc1cc(Cc2ccc3oc(C(=O)c4ccc(Cl)cc4)cc3c2)ccc1OCc1cn(-c2ccccc2C(F)(F)F)nn1`, for which the IC50 was 40.4 nM in data set [7] and 29.1 nM in [8].
Consider `C=C(C)[C@@H]1CC[C@]2(COC(=O)c3cn(Cc4ccc(F)cc4)nn3)CC[C@]3(C)[C@H](CC[C@@H]4[C@@]5(C)CC[C@H](OC(=O)c6cnnn6Cc6ccc(F)cc6)C(C)(C)[C@@H]5CC[C@]43C)[C@@H]12`, for which the figures for the IC50 in data set [9], in data set [10] and in [11] were 50 nM, 90 nM and 80 nM, respectively.
In [12], `O=c1cc(-c2ccccc2)c2ccc(OCc3nncn3-c3ccc(Cl)cc3)cc2o1` came in with a half-maximal inhibitory concentration (IC50) of 2630 nM.
For the molecule `O=C(O)c1ccc(C(=O)NCn2cc(CSc3nc(-c4ccccc4)c(-c4ccccc4)n3-c3ccccc3)nn2)cc1`, the IC50 in data set [13] was determined as 380 nM.
Regarding `COc1cc(/C=C/C(=O)/C(Cc2cnnn2Cc2ccc(F)cc2)=C(O)/C=C/c2ccc(O)c(OC)c2)ccc1O`, it took 3310 nM to reach half-maximal inhibition in data set [14] (IC50).
As for `c1ccc(-n2cc(-c3nc4ccc(C5=NCCN5)cc4s3)nn2)cc1`, in data set [15], the half-inhibitory concentration (IC50) is 250 nM.
Regarding `CC(=O)O[C@H]1CC[C@]2(C)[C@H]3CC=C4[C@@H]5[C@@H](C)[C@H](C)CC[C@]5(C(=O)OCc5cn(Cc6nonc6C)nn5)CC[C@@]4(C)[C@]3(C)CC[C@H]2C1(C)C`, in [16], the IC50 at 72 h was 10400 nM. In [17], the IC50 was found to be 1550 nM.
Turning to `O=c1oc2ccccc2c2c1cnn2Cc1cn(-c2ccc(Cl)cc2)nn1`, the IC50 in data set [18] worked out at 20200 nM.
Consider `CC(C)[C@@H]1CC[C@@H](C)C[C@@H]1On1cc(CN2C(=O)C(=O)c3ccccc32)nn1`, for which the IC50 in data set [19] was 1340 nM; in data set [20] it was 1790 nM.
With `CCc1nnc2c(-c3ccccc3)cc3c(Br)c(OC)c(OC)cc3n12`, the 50% inhibitory concentration (IC50) in data set [21] is 500 nM.
`Nn1c(Sc2c(O)c3ccccc3oc2=O)nnc1-c1ccc(Cl)cc1` returned an IC50 in data set [22] of 1780 nM.
On to `CC(C)(C)c1ccc(-c2cn(Cc3cc4c(o3)-c3ccccc3C(=O)C4=O)nn2)cc1`, for which the IC50 in data set [23] is 900 nM; in data set [24], 1400 nM.
Consider `CC(=O)O[C@@H]1O[C@H](Cn2cc(COc3cccc4cccnc34)nn2)[C@@H](OC(C)=O)[C@H](OC(C)=O)[C@H]1OC(C)=O`, for which the IC50 in data set [6] stood at 22300 nM.
In the case of `COC(=O)c1ccccc1-n1ncc(CSc2nnc(-c3ccccc3)o2)n1`, in data set [25], the IC50 came to 1260 nM.
Turning to `Cc1ccc(Cn2cc(Cn3c(Cl)cc(=O)n(C)c3=O)nn2)cc1`, the IC50 in data set [26] is 7700 nM; in [27], 4500 nM.
